Test results reported in patent US8883856B2, “Compositions and methods for the treatment of inflammatory diseases using topoisomerase inhibitors” (priority 2000, dated 2014).

Assays:
neutrophils = assay: Cytoplasmic DNA fragmentation in neutrophils (Cell death detection ELISA); format: cell-based, human
Description: The inflammation associated with many forms of arthritis is thought to arise from the presence of large numbers of immune cells, such as neutrophils, in the synovial joints of humans. The extended inflammation associated with crystal induced arthritis arises from the interaction of neutrophils with crystals in the synovial joint. One reason the extended duration of the inflammation in this disease may be due to the inhibition of neutrophil apoptosis by crystals. This inhibition may result in the neutrophils remaining in the joint for extended periods. Compounds that overcome this crystal induced suppression of neutrophil apoptosis therefore allow the more rapid clearance of these cells from the joint with the appropriate abatement of inflammation. The process of apoptosis involves the endonuclease driven cleavage of DNA into fragments which may be visualized as a ladder of bands in an agarose gel electrophoresis experiment. Other assays that may be used include caspase 3 quantitation or measurements of cytoplasmic DNA concentration. […] Agents that inhibit caspase activation levels or reduce cytoplasmic DNA are pro-survival (potentially inflammatory) and agents that promote are pro-apoptotic and anti-inflammatory. The use of these methods and their role in neutrophil affected inflammation is described in detail in Tudan et al. J Rheumatol. 27 p 2463-72. 2000.
Methods: Agarose gel banding/laddering of 180 base pairs: Neutrophils were separated from fresh human blood by standard methods (dextran sedimentation and ficoll paque centrifugation) and suspended in buffer at a concentration of 1×10^6 cells/ml. The cells were then incubated with crystals of calcium pyrophosphate dihydrate (CPPD) for 1 hours at 37° C. The cells were then incubated with or without camptothecin (0.1 uM) for 4 hours at 37° C. Neutrophil aliquots (1×10^6 cells) from different conditions were resuspended in 480 μl of lysis buffer (0.6% SDS, 10 mM Tris, 1 mM EDTA (pH 7.0)) and after vigorous mixing were allowed to sit on ice for 20 min after addition of 120 μl of 5M NaCl. In caspase 3 and DNA fragmentation assays a milder detergent (Triton) was used to lyse only the plasma membrane of the cells so that cytoplasmic contents (caspase 3 or DNA fragments) could be assayed. Samples were sedimented at 14,000 rpm at 4° C. for 20 min. The pellet was dried and resuspended in phenol:chloroform. Four hundred fifty μl of the upper phase was added to a new tube, which was then charged with 950 μl of […] and held at −20° C. for 10 min. The DNA was sedimented at 14,000 rpm (4° C.) and carefully washed in 75% ethanol without disturbing the pellet. The DNA was dried at 37° C. and then resuspended in 20 μl sample buffer (50% TBE with 1 μl of 1 ng/ml RNase A (Pharmacia)). […]

[1] = Encapsulation efficiency of drug in polymer microspheres; format: physicochemical
Protocol: Camptothecin (Sigma) was dissolved in a 5% (w/v) solution of poly(L-lactic acid) (2K molecular weight, Polysciences) in various ratios of drug to polymer (from 0.5:100 to 8:100 (w/w). Ten ml of each of these solutions were pipetted into 100 ml of a 2.5% (w/v) solution of poly vinyl alcohol (PVA, mol wt 13-21K Aldrich) with over head stirring at 500 rpm. After two hours stirring the PVA/microsphere suspension was poured through 90 um then 50 um sieves to collect the 50-90 um fraction of microspheres. These spheres were then washed in distilled water three times and dried under vacuum. The dried spheres were obtained in high yields (over 50% of the initial polymer was recovered as microspheres in the 50-90 um size range). […] Encapsulation efficiency was measured by dissolving microspheres in 1 ml of dichlomethane, extracting the drug into a 60/40 (v/v) acetonitrile water mixture and analysis by visible absorbance at 370 nm. The encapsulation efficiency of the drug in the polymer varied with the initial ratio of drug to polymer with high ratios resulting in a high level of encapsulation.
Plumbagin (Sigma) was dissolved in a 5% (w/v) solution of poly (L-lactic acid) (2K molecular weight, Polysciences) to give a final ratio of drug to polymer of 1:10 (w/w). Ten ml of this solution was pipetted into 100 ml of a 2.5% (w/v) solution of poly vinyl alcohol (PVA, mol wt 13-21K Aldrich) with over head stirring at 500 rpm. After two hours stirring the PVA/microsphere suspension was poured through 90 um then 50 um sieves to collect the 50-90 um fraction of microspheres. These spheres were then washed in distilled water three times and dried under vacuum. The dried spheres were obtained in high yields with over 50% of the initial polymer being recovered in microspheres in the 50-90 um size range. The microspheres were dense yellow in colour indicating high encapsulation efficiency of the drug plumbagin. The encapsulation efficiency was measured by dissolving the microspheres in 1 ml of dichlomethane, extracting the drug into a 60/40 (v/v) acetonitrile water mixture and analysis by visible absorbance at 420 nm. The encapsulation efficiency of the drug in the polymer was 80%.
Ten ml of each solution was pipetted into 100 ml of a 2.5% (w/v) solution of poly vinyl alcohol (PVA, mol wt 13-21K Aldrich) with over head stirring at 500 rpm. After two hours stirring the PVA/microsphere suspension was poured through 90 um then 50 um sieves to collect the 50-90 um fraction of microspheres. These spheres were then washed in distilled water three times and dried under vacuum. The dried spheres were obtained in high yields (over 50% of the initial polymer was recovered as microspheres in the 50-90 um size range).
Ten ml of each solution was pipetted into 100 ml of a 2.5% (w/v) solution of poly vinyl alcohol (PVA, mol wt 13-21K Aldrich) with over head stirring at 500 rpm. After two hours stirring the PVA/microsphere suspension was poured through 90 um then 50 um sieves to collect the 50-90 um fraction of microspheres. These spheres were then washed in distilled water three times and dried under vacuum.

[2] = Example 19 microspheres 50-90 um, drug to polymer 1:40 (beta-lapachone) or 1:100 (etoposide, doxorubicin)
[3] = polycaprolactone microspheres 50-90 um, drug to polymer 1:50

Structure (SMILES)	cytoplasmic DNA fragments in neutrophils (neutrophils)	encapsulation efficiency of the drug in the polymer [1, 2]	encapsulation efficiency of the drug in the polymer [1, 3]	further results
COc1cc([C@@H]2c3cc4c(cc3[C@@H](O[C@@H]3O[C@@H]5CO[C@@H](C)O[C@H]5[C@H](O)[C@H]3O)[C@H]3COC(=O)[C@H]23)OCO4)cc(OC)c1O [etoposide]	significant increase in cytoplasmic DNA			
CC1(C)CCC2=C(O1)c1ccccc1C(=O)C2=O [beta-lapachone]		97%		
CC1=CC(=O)c2ccccc2C1=O [menadione]			73%	
CC[C@@]1(O)C(=O)OCc2c1cc1n(c2=O)Cc2cc3ccccc3nc2-1 [camptothecin]	increased the cytoplasmic levels of DNA fragments			
COc1cccc2c1C(=O)c1c(O)c3c(c(O)c1C2=O)C[C@@](O)(C(=O)CO)C[C@@H]3O[C@H]1C[C@H](N)[C@H](O)[C@H](C)O1 [doxorubicin]	significant increase in cytoplasmic DNA	95%		
CC1=CC(=O)c2c(O)cccc2C1=O [plumbagin]			85%	encapsulation efficiency of the drug in the polymer ([1]; poly(L-lactic acid) 2K microspheres 50-90 um, drug to polymer 1:10): 80%
